In ChEMBL document CHEMBL2406999, “Vialinin A is a ubiquitin-specific peptidase inhibitor” (Bioorg Med Chem Lett, 2013):
The source made the active and inactive calls. The calls are words filed in the database; no cut-off is given here.

What was measured:
[1] = target: T1, Ubiquitin carboxyl-terminal hydrolase 5 (Homo sapiens) (UniProt P45974); assay: Inhibition of wild type human USP5 expressed in Escherichia coli BL21(DE3) using K48-linked tetraubiquitin as substrate assessed as substrate hydrolysis at 10 uM after 15 mins by SDS-PAGE analysis
T1 sequence (whole entry): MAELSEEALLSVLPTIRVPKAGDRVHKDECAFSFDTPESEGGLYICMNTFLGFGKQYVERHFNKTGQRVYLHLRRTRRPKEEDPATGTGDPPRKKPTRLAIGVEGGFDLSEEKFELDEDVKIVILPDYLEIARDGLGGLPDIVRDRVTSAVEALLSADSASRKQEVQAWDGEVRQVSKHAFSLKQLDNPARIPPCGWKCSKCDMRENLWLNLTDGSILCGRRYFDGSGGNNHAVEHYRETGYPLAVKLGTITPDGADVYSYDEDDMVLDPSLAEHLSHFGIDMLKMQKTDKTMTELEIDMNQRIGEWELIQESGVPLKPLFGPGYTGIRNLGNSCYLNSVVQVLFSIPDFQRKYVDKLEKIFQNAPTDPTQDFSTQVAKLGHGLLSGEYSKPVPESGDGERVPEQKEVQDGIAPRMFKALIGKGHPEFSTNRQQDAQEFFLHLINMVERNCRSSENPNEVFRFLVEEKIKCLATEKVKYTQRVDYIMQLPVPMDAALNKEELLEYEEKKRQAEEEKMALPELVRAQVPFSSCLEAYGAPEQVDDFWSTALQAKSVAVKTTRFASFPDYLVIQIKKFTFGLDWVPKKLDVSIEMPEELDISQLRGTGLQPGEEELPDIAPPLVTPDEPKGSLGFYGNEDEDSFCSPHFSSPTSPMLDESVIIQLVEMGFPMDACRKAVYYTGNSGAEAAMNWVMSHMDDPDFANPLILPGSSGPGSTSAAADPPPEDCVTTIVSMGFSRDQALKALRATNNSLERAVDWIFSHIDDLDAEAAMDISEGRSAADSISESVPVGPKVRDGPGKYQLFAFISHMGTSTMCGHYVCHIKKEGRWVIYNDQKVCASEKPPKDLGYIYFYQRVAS

[2] = target: T2, Ubiquitin carboxyl-terminal hydrolase 5 (Homo sapiens, UniProt P45974); assay: Competitive inhibition of wild type human USP5 expressed in Escherichia coli BL21(DE3) using Ub-AMC as substrate
T2 sequence (P45974 whole entry): T1 sequence (whole entry)

[3] = target: T2, Ubiquitin carboxyl-terminal hydrolase 5; assay: Inhibition of wild type human USP5 expressed in Escherichia coli BL21(DE3) using Ub-AMC as substrate after 60 mins by fluorometric analysis
[4] = tested on: RBL-2H3; assay: Binding affinity to USP5 in rat RBL2H3 cell extracts at 10 to 40 uM by SDS-PAGE analysis
[5] = target: T1, Ubiquitin carboxyl-terminal hydrolase 5 (Homo sapiens); assay: Competitive binding affinity to human recombinant USP5 after 1 hr by SDS-PAGE analysis in presence of biotin-DMT
[6] = target: T3, Ubiquitin carboxyl-terminal hydrolase 4 (Homo sapiens, UniProt Q13107); assay: Inhibition of human USP4 using Ub-AMC as substrate after 60 mins by fluorometric analysis
T3 sequence (Q13107 whole entry): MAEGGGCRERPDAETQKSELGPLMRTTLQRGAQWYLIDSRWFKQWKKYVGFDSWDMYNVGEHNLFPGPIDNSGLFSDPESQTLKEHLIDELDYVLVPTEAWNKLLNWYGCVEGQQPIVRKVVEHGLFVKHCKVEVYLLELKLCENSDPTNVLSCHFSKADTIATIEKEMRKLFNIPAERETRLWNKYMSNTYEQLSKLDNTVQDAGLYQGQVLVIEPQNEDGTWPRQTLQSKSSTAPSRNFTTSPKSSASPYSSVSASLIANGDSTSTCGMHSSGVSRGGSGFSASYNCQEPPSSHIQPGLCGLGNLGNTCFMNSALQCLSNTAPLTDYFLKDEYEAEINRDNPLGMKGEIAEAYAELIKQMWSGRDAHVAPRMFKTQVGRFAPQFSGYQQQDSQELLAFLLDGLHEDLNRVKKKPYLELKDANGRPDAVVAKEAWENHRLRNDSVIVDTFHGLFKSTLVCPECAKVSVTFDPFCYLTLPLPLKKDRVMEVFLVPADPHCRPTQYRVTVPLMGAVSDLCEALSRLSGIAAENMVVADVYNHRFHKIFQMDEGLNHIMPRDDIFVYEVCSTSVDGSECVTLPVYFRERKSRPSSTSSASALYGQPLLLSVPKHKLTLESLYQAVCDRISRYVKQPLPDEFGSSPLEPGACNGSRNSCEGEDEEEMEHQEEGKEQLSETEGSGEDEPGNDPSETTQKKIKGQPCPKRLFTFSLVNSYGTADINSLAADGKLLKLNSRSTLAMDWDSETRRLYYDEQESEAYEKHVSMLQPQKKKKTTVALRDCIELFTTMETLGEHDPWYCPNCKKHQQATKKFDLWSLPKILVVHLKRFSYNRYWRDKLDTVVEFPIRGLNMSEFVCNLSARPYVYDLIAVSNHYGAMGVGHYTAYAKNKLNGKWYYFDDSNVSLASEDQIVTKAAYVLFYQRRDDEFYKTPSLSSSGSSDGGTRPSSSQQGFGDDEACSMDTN

[7] = target: T4, Ubiquitin carboxyl-terminal hydrolase isozyme L1 (Homo sapiens, UniProt P09936); assay: Inhibition of human UCH-L1 using Ub-AMC as substrate after 60 mins by fluorometric analysis
T4 sequence (P09936 whole entry): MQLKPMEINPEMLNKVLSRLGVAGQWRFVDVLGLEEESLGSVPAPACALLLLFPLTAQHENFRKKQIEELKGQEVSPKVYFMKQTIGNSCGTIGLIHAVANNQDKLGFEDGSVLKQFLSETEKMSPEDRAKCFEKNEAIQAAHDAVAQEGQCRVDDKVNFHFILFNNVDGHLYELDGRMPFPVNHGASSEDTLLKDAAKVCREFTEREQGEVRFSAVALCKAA

[8] = target: Calpain1/2 (Homo sapiens) (UniProt P17655+P07384); assay: Inhibition of calpain1/2 (unknown origin) using Suc-LLVY-AMC as substrate at 6.3 uM after 20 mins by fluorometric analysis; assay type: protein assay
Sequence of Calpain1/2 (Homo sapiens) (P07384 whole entry, looked up): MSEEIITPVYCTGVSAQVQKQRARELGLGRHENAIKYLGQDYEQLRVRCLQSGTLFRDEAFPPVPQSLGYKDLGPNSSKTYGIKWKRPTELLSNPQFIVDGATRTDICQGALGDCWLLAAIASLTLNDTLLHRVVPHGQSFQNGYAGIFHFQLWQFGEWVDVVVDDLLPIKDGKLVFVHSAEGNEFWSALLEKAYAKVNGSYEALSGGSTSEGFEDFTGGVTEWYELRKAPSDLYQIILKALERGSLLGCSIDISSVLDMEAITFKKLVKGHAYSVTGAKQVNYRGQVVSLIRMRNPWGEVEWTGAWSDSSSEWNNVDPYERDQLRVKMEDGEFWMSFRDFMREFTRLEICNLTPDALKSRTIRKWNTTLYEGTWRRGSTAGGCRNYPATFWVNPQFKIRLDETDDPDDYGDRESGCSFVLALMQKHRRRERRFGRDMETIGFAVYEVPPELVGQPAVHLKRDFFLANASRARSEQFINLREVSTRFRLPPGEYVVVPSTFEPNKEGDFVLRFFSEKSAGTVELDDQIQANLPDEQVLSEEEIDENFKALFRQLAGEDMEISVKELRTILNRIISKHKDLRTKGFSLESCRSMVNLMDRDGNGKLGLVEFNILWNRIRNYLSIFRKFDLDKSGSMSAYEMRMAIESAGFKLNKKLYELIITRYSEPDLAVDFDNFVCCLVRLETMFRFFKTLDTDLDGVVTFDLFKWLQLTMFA
Sequence of Calpain1/2 (Homo sapiens) (P17655 whole entry, looked up): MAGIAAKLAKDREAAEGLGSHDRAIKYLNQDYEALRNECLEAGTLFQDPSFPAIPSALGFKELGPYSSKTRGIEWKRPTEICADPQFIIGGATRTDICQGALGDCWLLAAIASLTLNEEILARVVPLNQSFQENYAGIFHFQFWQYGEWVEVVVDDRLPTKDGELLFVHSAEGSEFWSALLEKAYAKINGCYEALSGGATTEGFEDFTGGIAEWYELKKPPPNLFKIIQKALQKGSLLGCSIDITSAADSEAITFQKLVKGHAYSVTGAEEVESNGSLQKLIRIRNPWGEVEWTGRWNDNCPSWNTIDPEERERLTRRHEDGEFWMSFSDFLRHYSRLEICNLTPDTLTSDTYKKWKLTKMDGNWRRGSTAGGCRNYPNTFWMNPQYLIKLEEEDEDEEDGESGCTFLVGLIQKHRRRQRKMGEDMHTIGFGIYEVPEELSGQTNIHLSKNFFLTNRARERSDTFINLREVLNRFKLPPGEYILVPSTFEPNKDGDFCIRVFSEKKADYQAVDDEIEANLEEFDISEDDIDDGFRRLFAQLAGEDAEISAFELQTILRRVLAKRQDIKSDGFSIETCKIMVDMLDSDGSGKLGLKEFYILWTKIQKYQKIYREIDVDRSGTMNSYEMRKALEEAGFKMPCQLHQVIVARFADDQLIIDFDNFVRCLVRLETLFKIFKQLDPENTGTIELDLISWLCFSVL

## O=C(Cc1ccccc1)Oc1c(OC(=O)Cc2ccccc2)c(-c2ccc(O)cc2)c(O)c(O)c1-c1ccc(O)cc1 [VIALININ A]
[1]
  inhibition: Active
[2]
  Ki: 12.5 µM
[3]
  IC50: 5.9 µM
  Ki: 4 µM
[4]
  Activity: inactive
[5]
  Activity: Active
[6]
  IC50: 1500 nM
[7]
  IC50: 22.3 µM
[8]
  inhibition: inactive
